The source of these data is patent US10010574B2, “Silk peptide for improving neuroprotective and neurofunctional effects and a method of its preparation” (BRAINGUARD CO., LTD., priority 2004, dated 2018).

This assay concerns depression animal model. As to the kind of experiment: Forced swimming test (depression animal model). In kind it is in vivo, Sprague Dawley rats. To be noted: P<0.05.

Method: Four Sprague Dawley rats (140-180 g, Dae Han BioLink Co., Korea) each box were placed under constant condition (temperature: 25±1° C., relative humidity: 60±10%), and fed with unlimited water and food for 1 week. Fifty rats were selected for experiment among the rats by excluding ones that were undeveloped, show less motion or abnormal behavior in forced swimming test.
As a standard method for behavioral despair test, a forced swimming test (FST) was used in this experiment, which is known as principal test for verify anti-depression efficacy.
A rat was placed for 15 minutes in a transparent cylindrical water tank with 40 cm of height and 18 cm of diameter, which was filled with 15 cm deep water. […] The immobilization state typically refers to a state that a rat pushes only its head above the surface and was in a minimum motion for keeping itself afloat. After forced swimming test, the rat was dried at 37° C. for 30 minutes and returned to the box.
After 24 hours, the second forced swimming was performed for 5 minutes under the same condition with the first forced swimming test, and total immobilization time was measured. […] The immobilization time was measured by recording total process of the forced swimming and comparing between the control group and the experiment group. Values measured by 3 different analyzers were averaged and used as an analysis data. […]

`CN(C)CCCN1c2ccccc2CCc2ccccc21` [imipramine]: the “Average immobilization time, 7-day repeated administration” value (oral one time a day for 7 days, FIG. 23) was “significantly decreased”. Where the note is “silk peptide 1 g/kg oral, imipramine 20 mg/kg, 1 hour before second forced swimming, FIG. 22”, the “Average immobilization time, one time urgent administration” value is listed as “significantly decreased”.
